Starred links: 1 amine or outer side, 2 acyl side, 3 side chain; linkers in the order of their positions; H or OH if unused. Positions of bridges follow the written chain, without caps; N, C: chain ends. Non-standard residues stand in square brackets, D forms with d. Residues, ends and D or L forms follow the SMILES beside them. *: point of attachment. Ahppa(3S,4S) = O=C(C[C@H](O)[C@H](Cc1ccccc1)N[*:1])[*:2]; Oic = O=C(O)[C@@H]1C[C@@H]2CCCC[C@@H]2N1; X7 = O=C(C(c1ccc(C(F)(F)F)cc1)N1CCNCC1)*; X9 = NC(=O)C[C@H](O)[C@H](Cc1ccccc1)N*; X3 = O=C(C(c1cccc(F)c1)N1CCNCC1)*; X6 = O=C(C(c1ccc(F)cc1)N1CCNCC1)*; X8 = O=C(C(c1ccccc1F)N1CCNCC1)*; dTic = O=C(O)[C@H]1Cc2ccccc2CN1; X2 = O=C(C(c1ccccc1)N1CCNCC1)*; Nphe = O=C(O)CNCc1ccccc1
Molecular target: T1, human QRFPR (hQRFPR) (Homo sapiens, UniProt Q96P65)
T1 construct: expressed in transfected cells; host or cells: CHO cells, stably transfected with hQRFPR (G418 selection) and Gα16 (hygromycin B selection)
T1 sequence (Q96P65 1-431): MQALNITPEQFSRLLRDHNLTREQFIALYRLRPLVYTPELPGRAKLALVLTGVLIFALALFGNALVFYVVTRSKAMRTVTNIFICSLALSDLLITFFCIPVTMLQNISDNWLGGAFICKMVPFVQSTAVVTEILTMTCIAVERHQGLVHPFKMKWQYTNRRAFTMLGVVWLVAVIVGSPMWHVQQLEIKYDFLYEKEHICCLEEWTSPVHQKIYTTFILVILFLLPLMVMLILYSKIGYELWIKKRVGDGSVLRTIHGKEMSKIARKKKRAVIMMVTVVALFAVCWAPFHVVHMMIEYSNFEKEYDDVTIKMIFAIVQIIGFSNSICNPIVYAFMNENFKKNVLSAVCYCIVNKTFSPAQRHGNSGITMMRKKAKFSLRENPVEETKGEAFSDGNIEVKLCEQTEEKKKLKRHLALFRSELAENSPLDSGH
Assay: Calcium mobilization assay, agonist mode ([Ca2+]i in Gα16-hQRFPR-transfected CHO cells)
Type: cell-based
Conditions: [Ca2+]i mobilization in Gα16-hQRFPR-transfected CHO cells; mean of at least three independent experiments performed in triplicate; read-out: EC50
Method: Stably transfected hQRFPR CHO cells were obtained as previously described. The cells were maintained in F-12 nutrient mixture (Ham-F12) medium supplemented with 10% fetal bovine serum, 2 mM glutamine, and penicillin-streptomycin. Expression of Gα16 cells was maintained using selection antibiotic hygromycin B (200 µg/mL) and that of hQRFPR using geneticin G418 (500 µg/mL) (Life Technologies, Villebon-Sur-Yvette, France) in a humidified 5% CO2 atmosphere at 37 °C.
Changes in intracellular Ca^2+ concentrations induced by 26RFa(20–26) analogs in CHO-Gα16-hQRFPR-transfected cells were measured on a benchtop scanning fluorometer Flexstation III (Molecular Devices, Sunnyvale, CA, USA) as previously described. Briefly, 96-well assay black plates with clear bottoms (Corning international, Avon, France) were seeded at a density of 40,000 cells/well 24 h prior to assay. For profiling agonistic experiments, cells were loaded with 2 µM Fluo-4 acetoxymethyl ester (AM) (Invitrogen) for 1 h in the presence of 0.01% pluronic acid, washed thrice, and incubated for 30 min with standard HBSS containing 2.5 mM probenecid and 5 mM HEPES. Compounds to be tested were added at final concentrations ranging from 10^−11 to 10^−5 M in HBSS, and the fluorescence intensity was measured during 3 min. To evaluate the antagonistic potency of the test compounds, cells were incubated with each compound over 15 min after Fluo-4 AM loading. Then, during fluorescence recording, a pulse of 26RFa was administered at a final concentration of 10^−7 M. After subtraction of the mean fluorescence background, the baseline was normalized to 100%. Fluorescence peak values were determined for each concentration of compound.
Calcium experiments were performed in triplicate, and data, expressed as mean ± SEM of at least three distinct experiments, were analyzed with the Prism 8.0 software (Graphpad Software, San Diego, CA, USA). EC50 and the IC50 values were determined from concentration–response curves using a sigmoidal dose–response fit with variable slope from at least three independent determinations. Differences between 26RFa(20–26) and analog activities were analyzed by the Mann–Whitney test. p values < 0.05 were considered significant.

Row | Compound | EC50 [µM]
1 | N=C(N)NCCC[C@H](NC(=O)CN(Cc1ccccc1)C(=O)[C@H](CO)NC(=O)[C@H](Cc1ccccc1)NC(=O)CNC(=O)CN)C(=O)N[C@@H](Cc1ccccc1)C(N)=O [Compound 32, [NPhe^24]26RFa(20–26)] (H-GGFS[Nphe]RF-NH2) | > 10
2 | N=C(N)NCCC[C@H](NC(=O)[C@H](Cc1ccccc1)NC(=O)[C@H](CO)NC(=O)[C@H](Cc1ccccc1)NC(=O)CNC(=O)CN)C(=O)N(CC(N)=O)Cc1ccccc1 [Compound 33, [NPhe^26]26RFa(20–26)] (H-GGFSFR[Nphe]-NH2) | > 10
3 | N=C(N)NCCC[C@H](NC(=O)C[C@H](O)[C@H](Cc1ccccc1)NC(=O)[C@H](CO)NC(=O)[C@H](Cc1ccccc1)NC(=O)CNC(=O)CN)C(=O)N[C@@H](Cc1ccccc1)C(N)=O [Compound 35, [AHPPA^24]26RFa(20–26)] (H-GGFS[Ahppa(3S,4S)]RF-NH2) | > 10
4 | N=C(N)NCCC[C@H](NC(=O)[C@H](Cc1ccccc1)NC(=O)[C@H](CO)NC(=O)[C@H](Cc1ccccc1)NC(=O)CNC(=O)CN)C(=O)N[C@@H](Cc1ccccc1)[C@@H](O)CC(N)=O [Compound 36, [AHPPA^26]26RFa(20–26)] (H-GGFSFR-X9) | > 10
5 | N=C(N)NCCC[C@H](NC(=O)[C@@H](Cc1c[nH]c2ccccc12)NC(=O)[C@H](CO)NC(=O)[C@H](Cc1ccccc1)NC(=O)CNC(=O)CN)C(=O)N[C@@H](Cc1ccccc1)C(N)=O [Compound 38, [DTrp^24]26RFa(20–26)] (H-GGFS[dW]RF-NH2) | > 10
6 | N=C(N)NCCC[C@H](NC(=O)[C@H](Cc1ccccc1)NC(=O)[C@H](CO)NC(=O)[C@H](Cc1ccccc1)NC(=O)CNC(=O)CN)C(=O)N1Cc2ccccc2C[C@@H]1C(N)=O [Compound 42, [DTic^26]26RFa(20–26)] (H-GGFSFR[dTic]-NH2) | > 10
7 | N=C(N)NCCC[C@H](NC(=O)[C@H](Cc1ccccc1)NC(=O)[C@H](CO)NC(=O)[C@@H]1C[C@@H]2CCCC[C@@H]2N1C(=O)CNC(=O)CN)C(=O)N[C@@H](Cc1ccccc1)C(N)=O [Compound 43, [Oic^22]26RFa(20–26)] (H-GG[Oic]SFRF-NH2) | > 10
8 | N=C(N)NCCC[C@H](NC(=O)[C@@H]1C[C@@H]2CCCC[C@@H]2N1C(=O)[C@H](CO)NC(=O)[C@H](Cc1ccccc1)NC(=O)CNC(=O)CN)C(=O)N[C@@H](Cc1ccccc1)C(N)=O [Compound 44, [Oic^24]26RFa(20–26)] (H-GGFS[Oic]RF-NH2) | > 10
9 | N=C(N)NCCC[C@H](NC(=O)[C@H](Cc1ccccc1)NC(=O)[C@H](CO)NC(=O)[C@H](Cc1ccccc1)NC(=O)CNC(=O)CN)C(=O)N1[C@H](C(N)=O)C[C@@H]2CCCC[C@@H]21 [Compound 45, [Oic^26]26RFa(20–26)] (H-GGFSFR[Oic]-NH2) | > 10
10 | N=C(N)NCCC[C@H](NC(=O)[C@@H]1CSSC[C@H](NC(=O)CNC(=O)CN)C(=O)N[C@@H](CO)C(=O)N1)C(=O)N[C@@H](Cc1ccccc1)C(N)=O [Compound 46, [Cys^22,24]26RFa(20–26)] (H-GGCSCRF-NH2; disulfide 3-5) | > 10
11 | N=C(N)NCCC[C@@H]1NC(=O)[C@H](Cc2ccccc2)NC(=O)[C@H](CO)NC(=O)[C@@H](NC(=O)CNC(=O)CN)CSSC[C@@H](C(N)=O)NC1=O [Compound 47, [Cys^22,26]26RFa(20–26)] (H-GGCSFRC-NH2; disulfide 3-7) | > 10
12 | N=C(N)NCCC[C@@H]1NC(=O)[C@@H](NC(=O)[C@H](CO)NC(=O)[C@H](Cc2ccccc2)NC(=O)CNC(=O)CN)CSSC[C@@H](C(N)=O)NC1=O [Compound 48, [Cys^24,26]26RFa(20–26)] (H-GGFSCRC-NH2; disulfide 5-7) | > 10
13 | N=C(N)NCCC[C@H](NC(=O)[C@H](Cc1ccccc1)NC(=O)[C@H](CO)NC(=O)C(c1ccccc1)N1CCNCC1)C(=O)N[C@@H](Cc1ccccc1)C(N)=O (stereo partly shown) [Compound 49, [Cmpi(Phg)^22]26RFa(22–26)] (X2-SFRF-NH2) | > 10
14 | N=C(N)NCCC[C@H](NC(=O)[C@H](Cc1ccccc1)NC(=O)[C@H](CO)NC(=O)C(c1ccccc1)N1CCNCC1)C(=O)N[C@@H](Cc1ccccc1)C(N)=O (stereo partly shown) [Compound 50, [Cmpi(Phg)^22]26RFa(22–26)] (X2-SFRF-NH2) | > 10
15 | N=C(N)NCCC[C@H](NC(=O)[C@H](Cc1ccccc1)NC(=O)[C@H](CO)NC(=O)C(c1ccccc1F)N1CCNCC1)C(=O)N[C@@H](Cc1ccccc1)C(N)=O (stereo partly shown) [Compound 56, [Cmpi(2-FPhg)^22]26RFa(22–26)] (X8-SFRF-NH2) | > 10
16 | N=C(N)NCCC[C@H](NC(=O)[C@H](Cc1ccccc1)NC(=O)[C@H](CO)NC(=O)C(c1ccc(C(F)(F)F)cc1)N1CCNCC1)C(=O)N[C@@H](Cc1ccccc1)C(N)=O (stereo partly shown) [Compound 57, [Cmpi(4-TfmPhg)^22]26RFa(22–26)] (X7-SFRF-NH2) | > 10
17 | N=C(N)NCCC[C@H](NC(=O)[C@H](Cc1ccccc1)NC(=O)[C@H](CO)NC(=O)C(c1ccc(C(F)(F)F)cc1)N1CCNCC1)C(=O)N[C@@H](Cc1ccccc1)C(N)=O (stereo partly shown) [Compound 58, [Cmpi(4-TfmPhg)^22]26RFa(22–26)] (X7-SFRF-NH2) | > 10

Compounds with a lower EC50, results first:

Row | EC50 [µM] | Compound
18 | 0.578 | N=C(N)NCCC[C@H](NC(=O)[C@H](Cc1ccccc1)NC(=O)[C@H](CO)NC(=O)CN(Cc1ccccc1)C(=O)CNC(=O)CN)C(=O)N[C@@H](Cc1ccccc1)C(N)=O [Compound 31, [NPhe^22]26RFa(20–26)] (H-GG[Nphe]SFRF-NH2)
19 | 2.85 | N=C(N)NCCC[C@H](NC(=O)[C@H](Cc1ccccc1)NC(=O)[C@H](CO)NC(=O)C[C@H](O)[C@H](Cc1ccccc1)NC(=O)CNC(=O)CN)C(=O)N[C@@H](Cc1ccccc1)C(N)=O [Compound 34, [AHPPA^22]26RFa(20–26)] (H-GG[Ahppa(3S,4S)]SFRF-NH2)
20 | 6.16 | N=C(N)NCCC[C@H](NC(=O)[C@H](Cc1ccccc1)NC(=O)[C@H](CO)NC(=O)[C@@H](Cc1c[nH]c2ccccc12)NC(=O)CNC(=O)CN)C(=O)N[C@@H](Cc1ccccc1)C(N)=O [Compound 37, [DTrp^22]26RFa(20–26)] (H-GG[dW]SFRF-NH2)
21 | 4.99 | N=C(N)NCCC[C@H](NC(=O)[C@H](Cc1ccccc1)NC(=O)[C@H](CO)NC(=O)[C@H]1Cc2ccccc2CN1C(=O)CNC(=O)CN)C(=O)N[C@@H](Cc1ccccc1)C(N)=O [Compound 40, [DTic^22]26RFa(20–26)] (H-GG[dTic]SFRF-NH2)
22 | 6.2 | N=C(N)NCCC[C@H](NC(=O)[C@H]1Cc2ccccc2CN1C(=O)[C@H](CO)NC(=O)[C@H](Cc1ccccc1)NC(=O)CNC(=O)CN)C(=O)N[C@@H](Cc1ccccc1)C(N)=O [Compound 41, [DTic^24]26RFa(20–26)] (H-GGFS[dTic]RF-NH2)
23 | 4.05 | N=C(N)NCCC[C@H](NC(=O)[C@H](Cc1ccccc1)NC(=O)[C@H](CO)NC(=O)C(c1ccc(F)cc1)N1CCNCC1)C(=O)N[C@@H](Cc1ccccc1)C(N)=O (stereo partly shown) [Compound 51, [Cmpi(4-FPhg)^22]26RFa(22–26)] (X6-SFRF-NH2)
24 | 1.66 | N=C(N)NCCC[C@H](NC(=O)[C@H](Cc1ccccc1)NC(=O)[C@H](CO)NC(=O)C(c1ccc(F)cc1)N1CCNCC1)C(=O)N[C@@H](Cc1ccccc1)C(N)=O (stereo partly shown) [Compound 52, [Cmpi(4-FPhg)^22]26RFa(22–26)] (X6-SFRF-NH2)
25 | 3.56 | N=C(N)NCCC[C@H](NC(=O)[C@H](Cc1ccccc1)NC(=O)[C@H](CO)NC(=O)C(c1cccc(F)c1)N1CCNCC1)C(=O)N[C@@H](Cc1ccccc1)C(N)=O (stereo partly shown) [Compound 53, [Cmpi(3-FPhg)^22]26RFa(22–26)] (X3-SFRF-NH2)
26 | 2.71 | N=C(N)NCCC[C@H](NC(=O)[C@H](Cc1ccccc1)NC(=O)[C@H](CO)NC(=O)C(c1cccc(F)c1)N1CCNCC1)C(=O)N[C@@H](Cc1ccccc1)C(N)=O (stereo partly shown) [Compound 54, [Cmpi(3-FPhg)^22]26RFa(22–26)] (X3-SFRF-NH2)
27 | 2.48 | N=C(N)NCCC[C@H](NC(=O)[C@H](Cc1ccccc1)NC(=O)[C@H](CO)NC(=O)C(c1ccccc1F)N1CCNCC1)C(=O)N[C@@H](Cc1ccccc1)C(N)=O (stereo partly shown) [Compound 55, [Cmpi(2-FPhg)^22]26RFa(22–26)] (X8-SFRF-NH2; N-terminus assumed)

Same assay, conditions: single prototype curve, triplicate; basal [Ca2+]i mobilization; read-out: EC50 calculated from representative dose–response curves (Figure 3)

Row | EC50 [µM] | Compound
28 | 0.149 | N=C(N)NCCC[C@H](NC(=O)[C@H](Cc1ccccc1)NC(=O)[C@H](CO)NC(=O)CN(Cc1ccccc1)C(=O)CNC(=O)CN)C(=O)N[C@@H](Cc1ccccc1)C(N)=O [Compound 31, [NPhe^22]26RFa(20–26)] (H-GG[Nphe]SFRF-NH2)

Reference: publication PMC8307317, “Point-Substitution of Phenylalanine Residues of 26RFa Neuropeptide: A Structure-Activity Relationship Study” (Molecules, 2021)
